# Test: physchem
# Details: 25 °C, water
row,solubility,Structure (SMILES)
1,0.01 µg/mL,"CSc1ccc(-c2nn(Cc3ccccc3)c(=O)cc2-c2ccc(Cl)cc2)cc1 [Compound A, 2-benzyl-5-(4-chlorophenyl)-6-[4-(methylthio)phenyl]-2H-pyridazin-3-one]"
2,0.1 µg/mL,CC(C)CCC[C@@H](C)[C@H]1CC[C@H]2[C@@H]3CC=C4C[C@@H](O)CC[C@]4(C)[C@H]3CC[C@]12C [cholesterol]
3,0.9 µg/mL,O=C(Nc1cccc2c(=O)cc(-c3nnn[nH]3)oc12)c1ccc(OCCCCc2ccccc2)cc1 [pranlukast]

row,Structure (SMILES),solubility
1,CCCCC(=O)O[C@]1(C(=O)COC(C)=O)CC[C@H]2[C@@H]3CCC4=CC(=O)C=C[C@]4(C)[C@H]3[C@@H](O)C[C@@]21C [prednisolone valerate acetate],4 µg/mL
